In general, GI50 refers to the concentration that inhibits growth by half.

One molecule from article PMC6297231 (Nature Communications, 2018) can be followed below.

The subject of one data set is OCIM1. Kind of data set: Cell viability assay. Format: cell-based. The note with it: OCI-M1, 24 h; OCIM1 (AML); read-out: AZD5991 24h GI50.
For the next data set, the system named is LnCAP. Description: Cell viability assay. The note with it: Homo sapiens, 24 h; LnCAP (Urology); read-out: AZD5991 24h GI50. Format: cell-based.
For a further data set, the system named is OCIAML5. Kind of data set: Cell viability assay. Format: cell-based. The note with it: Homo sapiens, OCI-AML-5, 24 h, read-out: AZD5991 24h GI50.
The test system of another data set is H1395. Kind of data set: Cell viability assay. Format: cell-based. The note with it: Homo sapiens, NCI-H1395, 24 h; H1395 (Lung); read-out: AZD5991 24h GI50.
The subject of the next data set is DU145. Kind of data set: Cell viability assay. Format: cell-based. The note with it: Homo sapiens, DU-145, 24 h; DU145 (Urology); read-out: AZD5991 24h GI50.
A further data set has as its system OCIAML2. Kind of data set: Cell viability assay. Type of data set: cell-based. The note with it: Homo sapiens, OCI-AML2, 24 h; OCIAML2 (AML); read-out: AZD5991 24h GI50.
The next data set deals with H2126. Description: Cell viability assay. The note with it: Homo sapiens, NCI-H2126, 24 h; H2126 (Lung); read-out: AZD5991 24h GI50. Type of data set: cell-based.
The next data set relates to MV4-11 tumors. Description: MV4-11 rat subcutaneous xenograft. Type of data set: in vivo. The method, then: Female C.B.-17 SCID mice and female nude rats were purchased from Charles River Laboratories. […]. All xenograft studies were conducted at our Association for the Assessment and Accreditation of Laboratory Animal Care accredited facility in Waltham, MA in accordance with ethical regulations described in the guidelines established by the internal Institutional Animal Care and Use Committee. […]. In mice, drugs were dosed intravenously in a volume of 5 mL kg^-1 except for venetoclax that was dosed orally in a volume of 10 mL kg^-1. […]. Ten million MV4-11 cells were injected subcutaneously in the right flank of rats in a volume of 0.1 mL. Tumor volumes (measured by caliper), animal body weight, and tumor condition were recorded twice weekly for the duration of the study. The tumor volume was calculated using the formula: length (mm) × width (mm)^2/0.52. For efficacy studies, growth inhibition from the start of treatment was assessed by comparison of the differences in tumor volume between control and treated groups. Statistical significance was evaluated using non-parametric, unpaired, two-tailed t-test. […] For pharmacokinetic analysis, plasma samples were precipitated and diluted with acetonitrile containing internal standard and analyzed by LC–MS/MS versus a calibration curve of known concentrations.

For another data set, the system named is DMS114. Kind of data set: Cell viability assay. Format: cell-based. The note with it: Homo sapiens, DMS-114, 24 h; DMS114 (Lung); read-out: AZD5991 24h GI50.
In data set [1] the test system is NCI-H23 cells depleted of Bak. Kind of data set: Caspase-3/7 activation after Bak siRNA. Format: cell-based. The note with it: Bak siRNA 72 h, then 6 h treatment. The method, then: NCI-H23 cells were trypsinized and resuspended in growth medium. SiRNA targeting Bak (cat#S1881, ThermoFisher Scientific) or non-targeting siRNA (cat#4390847, ThermoFisher Scientific), and Lipofectamine RNAiMAX (ThermoFisher Scientific) were mixed in OPTIMEM and incubated at room temperature for 20 min. Next, cell suspension was added to each siRNA master mix, dispensed into each well of a 96-well plate and incubated for 72 h.

In a further data set the test system is KMS12BM. Kind of data set: Cell viability assay. The note with it: Homo sapiens, KMS-12-BM, 24 h; KMS12BM (MM); read-out: AZD5991 24h GI50. Type of data set: cell-based.
The test system of a further data set is A253. Description: Cell viability assay. Format: cell-based. The note with it: Homo sapiens, 24 h; A253 (Others); read-out: AZD5991 24h GI50.
A further data set deals with MM1S. Description: Cell viability assay. Format: cell-based. The note with it: Homo sapiens, MM1.S, 24 h; MM1S (MM); read-out: AZD5991 24h GI50.
Another data set has as its system Will2. Kind of data set: Cell viability assay. Type of data set: cell-based. The note with it: 24 h; Will2 (NHL); read-out: AZD5991 24h GI50.
A further data set relates to SKMEL24. Kind of data set: Cell viability assay. Format: cell-based. The note with it: Homo sapiens, SK-MEL-24, 24 h; SKMEL24 (Skin); read-out: AZD5991 24h GI50.
For the next data set, the system named is U266B1. Kind of data set: Cell viability assay. Type of data set: cell-based. The note with it: 24 h; U266B1 (MM); read-out: AZD5991 24h GI50.
In another data set the test system is LP1. Description: Cell viability assay. Format: cell-based. The note with it: Homo sapiens, LP-1, 24 h; LP1 (MM); read-out: AZD5991 24h GI50.
In another data set the test system is EOL1. Kind of data set: Cell viability assay. Type of data set: cell-based. The note with it: Homo sapiens, 24 h; EOL1 (AML); read-out: AZD5991 24h GI50.
A further data set has as its system U2OS. Kind of data set: Cell viability assay. Format: cell-based. The note with it: Homo sapiens, 24 h; U2OS (Others); read-out: AZD5991 24h GI50.
A further data set relates to SNU16. Description: Cell viability assay. Format: cell-based. The note with it: Homo sapiens, SNU-16, 24 h; SNU16 (GI); read-out: AZD5991 24h GI50.
A further data set relates to Z-138. Kind of data set: Cell viability assay. Format: cell-based. The note with it: Homo sapiens, 24 h; Z-138 (NHL); read-out: AZD5991 24h GI50.
A further data set deals with HCC827. Description: Cell viability assay. The note with it: Homo sapiens, 24 h; HCC827 (Lung); read-out: AZD5991 24h GI50. Format: cell-based.
Another data set deals with ME1. Description: Cell viability assay. The note with it: ME-1, 24 h; ME1 (AML); read-out: AZD5991 24h GI50. Format: cell-based.

Description for A253: (§1) Cells were plated at 3000 cells/well in 384-well white plates in corresponding cell growth media. […] Caspase-3/7 activation was subsequently determined using a Caspase-Glo 3/7 Reagent (Promega) and viability was assayed using the CellTiter-Glo Reagent (Promega) as described in manufacturer’s instructions. Dose–response curves for caspase-3/7 activation and viability were plotted and analyzed (including EC50 and GI50 determination) using GraphPad Prism.
Description for DMS114: as §1
Description for DU145: as §1
Description for EOL1: as §1
Description for H1395: as §1
Description for H2126: as §1
Description for HCC827: as §1
Description for LP1: as §1
Description for LnCAP: as §1
Description for ME1: as §1
Description for MM1S: as §1
Description for OCIAML2: as §1
Description for OCIAML5: as §1
Description for OCIM1: as §1
Description for SKMEL24: as §1
Description for SNU16: as §1
Description for U266B1: as §1
Description for U2OS: as §1
Description for Will2: as §1
Description for Z-138: as §1

Regarding `Cc1c2c(nn1C)CSCc1cc(n(C)n1)CSc1cc(c3ccccc3c1)OCCCc1c(C(=O)O)n(C)c3c-2c(Cl)ccc13` (atropisomer, axis not shown; (Ra)) [(Ra)-7], the 50% growth inhibitory concentration (GI50) with OCIM1 is 27700 nM; in the data set on LnCAP, 13400 nM; in the data set with OCIAML5, 11000 nM; in the data set on H1395 it was 12000 nM; in the data set on DU145 it was 26800 nM; with OCIAML2 it was 295 nM. Moreover, the GI50 with H2126 was 320 nM; in the data set on DMS114 it was 219 nM; in the data set on KMS12BM, 15 nM; in the data set on A253, above 30000 nM; in the data set with MM1S, 348 nM; in the data set on Will2, 43 nM. Also, the GI50 is 17900 nM in the data set with SKMEL24; above 30000 nM in the data set with U266B1; 258 nM in the data set on LP1; 12 nM with EOL1; 20600 nM in the data set with U2OS; 139 nM with SNU16. Also, the GI50 stood at 290 nM in the data set on Z-138, 20100 nM in the data set on HCC827 and 220 nM in the data set with ME1. Also, the “tolerability, body weight” value with MV4-11 tumors (30 mg kg^−1 i.v.) is “no significant body weight loss”. For the same molecule, in the data set with MV4-11 tumors (single i.v. dose 30 mg kg^−1), the antitumor response result is reported as “TR observed”. The “caspase-3/7 activation and cell death” value in data set [1] is “confers resistance”.
